# In patent US9315475B2 (MERCK SHARP & DOHME CORP., priority 2011, dated 2016):
# Counter-ions that a name gives are not always drawn.
# Assays:
# wildtype HIV-1 protease = molecular target: T1, wildtype HIV-1 protease (Human immunodeficiency virus type 1 group M subtype B, UniProt P04585); assay: Assay for inhibition of microbial expressed HIV protease (Pepcleav); assay type: biochemical; details: wild type HIV-1 protease expressed in E. coli, peptide substrate, pH 5.5; mean of at least two independent experiments; read-out: Pepcleav
# T1 construct: the wildtype HIV-1 protease (which was expressed in Escherichia coli); made in house; host or cells: Escherichia coli
# Outline: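 Cleavage of 400 μM peptide substrate Val-Ser-Gln-Asn-(βnaphthyl)Ala-Pro-Ile-Val by 20 pM wild-type enzyme (E. coli-expressed) ran 1 h at 30 °C after 30 min inhibitor preincubation, pH 5.5 acetate buffer. Inhibition derived from product peak area by C18 LC with multiple-reaction-monitoring MS after formic acid quench.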
# HIV-1 (H9IIIB strain) = assay: Antiviral acute infection assay in cell culture (Spread); assay type: cell-based; details: Human immunodeficiency virus 1, T-lymphoid, HIV-1 H9IIIB infection of MT-4 human T-lymphoid cells in 10% FBS; mean of at least two independent experiments
# Description: Antiviral Assays in Cell Culture (“Spread”)
# Acute Infection Assay (“Spread”) data were generated using HIV-1 (H9IIIB strain) infection of MT-4 human T-lymphoid cells in 10% FBS, and according to the methods disclosed by J. P. Vacca et al, “L-735,524: An orally bioavailable human immunodeficiency virus type 1 protease inhibitor,” Proc. Natl. Acad. Sci. USA, Vol. 91, pp. 4096-4100 (April 1994).
Compound,IC50 (wildtype HIV-1 protease),EC50 (HIV-1 (H9IIIB strain))
"COC(=O)N[C@H](C(=O)Nc1cncc(F)c1CC[C@@H]1CN[C@H](COC(=O)NCC(F)(F)F)CO1)[C@H](c1ccccc1)c1ccc(OC(F)(F)F)cc1 [Example 291, (βR)-N-(5-fluoro-4-{2-[(2R,5S)-5-({[(2,2,2-trifluoroethyl)carbamoyl]oxy}methyl)morpholin-2-yl]ethyl}pyridin-3-yl)-Nα-(methoxycarbonyl)-β-phenyl-O-(trifluoromethyl)-L-tyrosinamide]",28 nM,110 nM
"N[C@H](C(=O)Nc1cncc(F)c1CC[C@@H]1CN[C@H](COC(=O)NCC(F)(F)F)CO1)[C@H](c1ccc(F)cc1)c1ccc(Br)cc1 [Example 275, (βR)-4-bromo-β-(4-fluorophenyl)-N-(5-fluoro-4-{2-[(2R,5S)-5-({[(2,2,2-trifluoroethyl)carbamoyl]oxy}methyl)morpholin-2-yl]ethyl}pyridin-3-yl)-L-phenylalaninamide]",0.4 nM,25 nM
"COC(=O)N[C@H](C(=O)Nc1cncc(F)c1CC[C@@H]1CN[C@H](COC(=O)NCC(F)(F)F)CO1)[C@H](c1ccc(F)cc1)c1ccc(F)c(F)c1 [Example 297, (βR)-3,4-difluoro-β-(4-fluorophenyl)-N-(5-fluoro-4-{2-[(2R,5S)-5-({[(2,2,2-trifluoroethyl)carbamoyl]oxy}methyl)morpholin-2-yl]ethyl}pyridin-3-yl)-Nα-(methoxycarbonyl)-L-phenylalaninamide]",1 nM,15 nM
"N[C@H](C(=O)Nc1cncc(F)c1CC[C@@H]1CN[C@H](COC(=O)NC[C@@H]2CCC(=O)N2)CO1)C(c1ccc(F)cc1)c1ccc(F)cc1 [Example 235, 4-fluoro-N-(5-fluoro-4-{2-[(2R,5S)-5-{[({[(2S)-5-oxopyrrolidin-2-yl]methyl}carbamoyl)oxy]methyl}morpholin-2-yl]ethyl}pyridin-3-yl)-β-(4-fluorophenyl)-L-phenylalaninamide]",97 nM,5000 nM
"CCC(CO)NC(=O)OC[C@@H]1CO[C@H](CCc2c(F)cncc2NC(=O)CC(c2ccc(F)cc2)c2ccc(F)cc2)CN1 (stereo partly drawn) [Example 165, {(3S,6R)-6-[2-(3-{[3,3-bis(4-fluorophenyl)propanoyl]amino}-5-fluoropyridin-4-yl)ethyl]morpholin-3-yl}methyl [1-(hydroxy-methyl)propyl]carbamate]",4.5 nM,40 nM
COC(=O)N[C@H](C(=O)Nc1cccc(F)c1CC[C@@H]1CN[C@H](COC(=O)NCC(F)(F)F)CO1)[C@H](c1ccc(F)cc1)c1ccc2ccccc2c1 [Example 289],16 nM,310 nM
"CCNC(=O)OC[C@@H]1CO[C@H](CCc2c(F)cncc2NC(=O)[C@@H](N)C(c2ccc(F)cc2)c2ccc(F)cc2)CN1 [Example 207, N-(4-{2-[(2R,5S)-5-{[(ethylcarbamoyl)oxy]methyl}morpholin-2-yl]ethyl}-5-fluoropyridin-3-yl)-4-fluoro-β-(4-fluorophenyl)-L-phenylalaninamide]",20 nM,110 nM
"COC(=O)N[C@H](C(=O)Nc1cccc(F)c1CC[C@@H]1CN[C@H](COC(=O)NCC(C)(C)O)CO1)C(c1ccc(F)cc1)c1ccc(F)cc1 [Example 121, 4-Fluoro-N-(3-fluoro-2-{2-[(2R,5S)-5-({[(2-hydroxy-2-methylpropyl)carbamoyl]oxy}methyl)morpholin-2-yl]ethyl}phenyl)-β-(4-fluorophenyl)-Nα-(methoxycarbonyl)-L-phenylalaninamide]",2.5 nM,10 nM
"N[C@H](C(=O)Nc1cncc(F)c1CC[C@@H]1CN[C@H](C(=O)Nc2ccccc2O)CO1)C(c1ccc(F)cc1)c1ccc(F)cc1 [Example 271, 4-fluoro-N-[5-fluoro-4-(2-{(2R,5S)-5-[(2-hydroxyphenyl)carbamoyl]morpholin-2-yl}ethyl)pyridin-3-yl]-β-(4-fluorophenyl)-L-phenylalaninamide]",2 nM,810 nM
"O=C(C[C@H](c1ccccc1)c1ccc(Cl)cc1)Nc1cccc(F)c1CC[C@@H]1CN[C@H](COC(=O)NCC(F)(F)F)CO1 [Example 150, {(3S,6R)-6-[2-(2-{[(3R)-3-(4-chlorophenyl)-3-phenylpropanoyl]amino}-6-fluorophenyl)ethyl]morpholin-3-yl}methyl (2,2,2-trifluoroethyl) carbamate]",11 nM,130 nM
"N[C@H](C(=O)Nc1cncc(F)c1CC[C@@H]1CN[C@H](COC(=O)NCC(F)(F)F)CO1)[C@H](c1ccc(F)cc1)c1ccc(C(F)(F)F)cc1 [Example 264, (βS)-β-(4-fluorophenyl)-N-(5-fluoro-4-{2-[(2R,5S)-5-({[(2,2,2-trifluoroethyl)carbamoyl]oxy}methyl)morpholin-2-yl]ethyl}pyridin-3-yl)-4-(trifluoromethyl)-L-phenylalaninamide]",3.6 nM,77 nM
"N[C@H](C(=O)Nc1cccc(F)c1CC[C@@H]1CN[C@H](COC(=O)NCC(F)(F)F)CO1)C(c1cccc(F)c1)c1cccc(F)c1 [Example 262, 3-fluoro-β-(3-fluorophenyl)-N-(3-fluoro-2-{2-[(2R,5S)-5-({[(2,2,2-trifluoroethyl)carbamoyl]oxy}methyl)morpholin-2-yl]ethyl}phenyl)-L-phenylalaninamide]",4 nM,15 nM
"NC(=O)OC[C@@H]1CO[C@H](CCc2c(F)cccc2NC(=O)C[C@@H](c2ccc(F)cc2)c2ccncc2F)CN1 [Example 157, {(3S,6R)-6-[2-(2-fluoro-6-{[(3S)-3-(4-fluorophenyl)-3-(3-fluoropyridin-4-yl)propanoyl]amino}phenyl)ethyl]morpholin-3-yl}methyl carbamate]",9.6 nM,18 nM
"N[C@H](C(=O)Nc1cc(F)ccc1CC[C@@H]1CN[C@H](COC(=O)NCC(F)F)CO1)C(c1ccccc1)c1ccccc1 [Example 237, N-(2-{2-[(2R,5S)-5-({[(2,2-difluoroethyl)carbamoyl]oxy}methyl)morpholin-2-yl]ethyl}-5-fluorophenyl)-β-phenyl-L-phenylalaninamide]",69 nM,190 nM
"N[C@H](C(=O)Nc1cncc(F)c1CC[C@@H]1CN[C@H](COC(=O)NC(CC(F)(F)F)c2ccc(F)cc2)CO1)C(c1ccc(F)cc1)c1ccc(F)cc1 (stereo partly drawn) [Example 276, 4-fluoro-β-(4-fluorophenyl)-N-[5-fluoro-4-(2-{(2R,5S)-5-[({[3,3,3-trifluoro-1-(4-fluorophenyl)propyl]carbamoyl}oxy)methyl]morpholin-2-yl}ethyl)pyridin-3-yl]-L-phenylalaninamide]",0.2 nM,28 nM
"N[C@H](C(=O)Nc1cccc(F)c1OC[C@@H]1CN[C@H](COC(=O)NCC(F)(F)F)CO1)C(c1ccc(F)cc1)c1ccc(F)cc1 [Example 82, ((3S,6S)-6-((2-((S)-2-amino-3,3-bis(4-fluorophenyl)propanamido)-6-fluorophenoxy)methyl)morpholin-3-yl)methyl (2,2,2-trifluoroethyl)carbamate]",11 nM,40 nM
"N[C@H](C(=O)Nc1cncc(F)c1CC[C@@H]1CN[C@H](COC(=O)NCC(F)(F)F)CO1)C(c1ccc(F)cc1)c1ccc(F)cc1 [Example 79, 4-Fluoro-β-(4-fluorophenyl)-N-(5-fluoro-4-{2-[(2R,5S)-5-({[(2,2,2-trifluoroethyl)carbamoyl]oxy}methyl)morpholin-2-yl]ethyl}pyridin-3-yl)-L-phenylalaninamide trihydrochloride]",3.6 nM,37 nM
"O=C(CC(c1ccccc1)c1ccccc1)Nc1cncc(F)c1CC[C@@H]1CN[C@H](COC(=O)NCC(F)(F)F)CO1 [Example 146, [(3S,6R)-6-(2-{3-[(3,3-diphenylpropanoyl)amino]-5-fluoropyridin-4-yl}ethyl)morpholin-3-yl]methyl (2,2,2-trifluoroethyl)carbamate]",13 nM,47 nM
"N[C@H](C(=O)Nc1cccc(F)c1CC[C@@H]1CN[C@H](COC(=O)NCC(F)(F)F)CO1)[C@H](c1ccc(F)cc1)c1ccc(Cl)cc1 [Example 273, (βR)-β-(4-chlorophenyl)-4-fluoro-N-(3-fluoro-2-{2-[(2R,5S)-5-({[(2,2,2-trifluoroethyl)carbamoyl]oxy}methyl)morpholin-2-yl]ethyl}phenyl)-L-phenylalaninamide]",1.4 nM,20 nM
"O=C(C[C@H](c1ccc(F)cc1)c1ccc(Cl)cc1)Nc1cccc(F)c1CC[C@@H]1CN[C@H](COC(=O)NCC(F)(F)F)CO1 [Example 154, {(3S,6R)-6-[2-(2-{[(3R)-3-(4-chlorophenyl)-3-(4-fluorophenyl)propanoyl]amino}-6-fluoro-phenyl)ethyl]morpholin-3-yl}methyl (2,2,2-trifluoroethyl)carbamate]",5.1 nM,150 nM
COC(=O)N[C@H](C(=O)Nc1cncc(F)c1CC[C@@H]1CN[C@H](COC(=O)NCC(F)(F)F)CO1)[C@H](c1ccc(F)cc1)c1ccc(C(F)(F)F)cc1 [Example 286],4.6 nM,37 nM
"N[C@H](C(=O)Nc1cncc(F)c1CC[C@@H]1CN[C@H](COC(=O)NC2(c3ccccn3)CC2)CO1)C(c1ccc(F)cc1)c1ccc(F)cc1 [Example 214, 4-fluoro-β-(4-fluorophenyl)-N-(5-fluoro-4-{2-[(2R,5S)-5-({[(1-pyridin-2-ylcyclopropyl)carbamoyl]oxy}methyl)morpholin-2-yl]ethyl}pyridin-3-yl)-L-phenylalaninamide]",5.2 nM,58 nM
